Experimental data published in ChEMBL document CHEMBL2046421, “Study on anti-proliferative effect of benzoxathiole derivatives through inactivation of NF-κB in human cancer cells” (Bioorg Med Chem Lett, 2012).

Key:
[1] = Inhibition of NFkappaB expressed in RAW264.7 cells coexpressing NPT assessed as inhibition of LPS-induced SEAP activity incubated for 2 hrs prior to LPS-induction measured after 16 hrs by reporter gene assay; format: cell-based
[2] = Inhibition of NFkappaB expressed in THP1 cells assessed as inhibition of LPS-induced SEAP activity incubated for 2 hrs prior to LPS-induction measured after 16 hrs by reporter gene assay; format: cell-based; conditions: THP-1
[3] = tested on: ACHN; assay: Antiproliferative activity against human ACHN cells by SRB assay; format: functional
[4] = tested on: NCI-H23; assay: Antiproliferative activity against human NCI-H23 cells by SRB assay; format: functional
[5] = tested on: MDA-MB-231; assay: Antiproliferative activity against human MDA-MB-231 cells by SRB assay; format: functional
[6] = tested on: HCT-15; assay: Antiproliferative activity against human HCT15 cells by SRB assay; format: functional
[7] = tested on: NUGC-3; assay: Antiproliferative activity against human NUGC3 cells by SRB assay; format: functional
[8] = tested on: PC-3; assay: Antiproliferative activity against human PC3 cells by SRB assay; format: functional

| Compound | IC50 [1] | IC50 [2] | GI50 [3] | GI50 [4] | GI50 [5] | GI50 [6] | GI50 [8] | GI50 [7] |
| --- | --- | --- | --- | --- | --- | --- | --- | --- |
| CC(C)C1CC(=O)c2s/c(=N/C3CCCCC3)oc2C1 (stereo not drawn) | 13.1 µM | 13.1 µM | 6.7 µM | 7.08 µM | 5.9 µM | 3.53 µM | 5.16 µM | 2710 nM |
| CC(C)C1CC(=O)c2s/c(=N/c3c(Cl)cc(Cl)cc3Cl)oc2C1 (stereo not drawn) | > 30 µM | > 30 µM | > 30 µM | > 30 µM | > 30 µM | > 30 µM | > 30 µM | > 30000 nM |
| CC(C)C1CC(=O)c2s/c(=N/c3ccccc3)oc2C1 (stereo not drawn) | 4.9 µM | 4.9 µM | 3.08 µM | 2.28 µM | 2.48 µM | 1.15 µM | 2.19 µM | 1220 nM |
| CC1CC(=O)c2s/c(=N/c3ccc(Cl)cc3)oc2C1 (stereo not drawn) | 19.5 µM | 19.5 µM | 12.3 µM | 13.5 µM | 14.3 µM | 12.2 µM | 16.4 µM | 15900 nM |
| CC1(C)CC(=O)c2o/c(=N/C3CCCCC3)oc2C1 | > 30 µM | > 30 µM | > 30 µM | > 30 µM | > 30 µM | > 30 µM | > 30 µM | > 30000 nM |
| CC(C)C1CC(=O)c2s/c(=N/c3ccc(F)cc3)oc2C1 (stereo not drawn) | 7.9 µM | 7.9 µM | 3.67 µM | 3.65 µM | 2.69 µM | 2.99 µM | 2.76 µM | 670 nM |
| CC1CC(=O)c2s/c(=N/c3ccccc3)oc2C1 (stereo not drawn) | 6.7 µM | 6.7 µM | 2.98 µM | 2.72 µM | 2.31 µM | 2.07 µM | 2.63 µM | 1890 nM |
| CC1(C)CC(=O)c2s/c(=N/c3ccc(Cl)cc3)oc2C1 | 7.5 µM | 7.5 µM | 9.81 µM | 11.6 µM | 6.38 µM | 3.79 µM | 4.26 µM | 2940 nM |
| CC1(C)CC(=O)c2s/c(=N/C3CCCCC3)oc2C1 | 12.5 µM | 12.5 µM | 11.3 µM | 12.5 µM | 13.1 µM | 12.2 µM | 12.7 µM | 11500 nM |

Further lines, with some results ahead:

| IC50 [1] | IC50 [2] | GI50 [3] | GI50 [4] | GI50 [5] | GI50 [6] | GI50 [8] | Compound | GI50 [7] |
| --- | --- | --- | --- | --- | --- | --- | --- | --- |
| > 30 µM | > 30 µM | > 30 µM | > 30 µM | > 30 µM | > 30 µM | > 30 µM | CCCc1o/c(=N\c2ccccc2)sc1C(C)=O | > 30000 nM |
| > 30 µM | > 30 µM | > 30 µM | > 30 µM | > 30 µM | > 30 µM | > 30 µM | CC1(C)CC(=O)c2s/c(=N/c3c(Cl)cc(Cl)cc3Cl)oc2C1 | > 30000 nM |
| > 30 µM | > 30 µM | > 30 µM | > 30 µM | > 30 µM | > 30 µM | > 30 µM | CC1CC(=O)c2s/c(=N/c3c(Cl)cc(Cl)cc3Cl)oc2C1 (stereo not drawn) | > 30000 nM |
| 6.2 µM | 6.2 µM | 8.98 µM | 7.08 µM | 5.88 µM | 8.09 µM | 7.4 µM | CC1(C)CC(=O)c2s/c(=N/c3ccccc3)oc2C1 | 5460 nM |
|  |  | 1.63 µM | 1.66 µM | 1.79 µM | 1.34 µM | 1.65 µM | COc1cccc2c1C(=O)c1c(O)c3c(c(O)c1C2=O)C[C@@](O)(C(=O)CO)C[C@@H]3O[C@H]1C[C@H](N)[C@H](O)[C@H](C)O1 [DOXORUBICIN] | 1000 nM |
| 10.6 µM | 10.6 µM | 3.74 µM | 3.36 µM | 3.2 µM | 2.39 µM | 2.45 µM | CC1(C)CC(=O)c2s/c(=N/c3ccc(F)cc3)oc2C1 | 1080 nM |
